Molecular target: T1, human recombinant HDAC6 (Homo sapiens, UniProt Q9UBN7)
T1 construct: purchased Calbiochem 382180
T1 sequence (Q9UBN7 1-1215): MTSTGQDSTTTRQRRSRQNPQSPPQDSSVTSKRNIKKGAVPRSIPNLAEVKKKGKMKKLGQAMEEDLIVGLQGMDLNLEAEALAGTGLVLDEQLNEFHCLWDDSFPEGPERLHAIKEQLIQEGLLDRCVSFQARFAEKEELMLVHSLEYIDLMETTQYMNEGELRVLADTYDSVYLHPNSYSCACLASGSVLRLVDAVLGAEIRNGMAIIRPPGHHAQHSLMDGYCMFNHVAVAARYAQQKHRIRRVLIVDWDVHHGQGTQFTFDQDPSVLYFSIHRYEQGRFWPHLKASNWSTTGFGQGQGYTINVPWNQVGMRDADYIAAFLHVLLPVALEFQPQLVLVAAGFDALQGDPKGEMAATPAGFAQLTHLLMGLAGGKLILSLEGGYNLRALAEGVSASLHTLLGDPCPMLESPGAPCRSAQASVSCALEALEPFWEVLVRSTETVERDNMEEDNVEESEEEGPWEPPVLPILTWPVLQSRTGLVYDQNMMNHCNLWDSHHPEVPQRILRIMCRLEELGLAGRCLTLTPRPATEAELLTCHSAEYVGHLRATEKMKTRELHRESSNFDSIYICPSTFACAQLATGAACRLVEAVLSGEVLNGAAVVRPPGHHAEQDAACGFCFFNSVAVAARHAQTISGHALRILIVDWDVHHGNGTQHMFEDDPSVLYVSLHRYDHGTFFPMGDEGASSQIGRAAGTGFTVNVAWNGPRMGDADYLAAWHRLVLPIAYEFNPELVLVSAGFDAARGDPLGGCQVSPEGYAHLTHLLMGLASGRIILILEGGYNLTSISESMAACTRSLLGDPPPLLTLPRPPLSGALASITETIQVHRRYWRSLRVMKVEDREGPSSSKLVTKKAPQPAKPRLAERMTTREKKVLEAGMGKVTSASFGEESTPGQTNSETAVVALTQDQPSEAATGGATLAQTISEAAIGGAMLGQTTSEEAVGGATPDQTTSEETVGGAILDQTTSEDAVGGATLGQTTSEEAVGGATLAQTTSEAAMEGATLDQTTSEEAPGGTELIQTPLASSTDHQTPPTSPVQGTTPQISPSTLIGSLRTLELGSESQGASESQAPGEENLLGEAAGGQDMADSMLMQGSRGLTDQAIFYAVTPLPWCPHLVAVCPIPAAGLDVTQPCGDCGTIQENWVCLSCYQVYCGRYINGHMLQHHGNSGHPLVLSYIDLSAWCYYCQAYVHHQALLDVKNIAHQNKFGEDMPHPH
Test: HDAC6 enzyme activity inhibition assay (HDAC Fluorimetric Drug Discovery Kit)
Format: biochemical
Conditions: for HDAC6 selectivity (fold): HDAC1 vs HDAC6; for IC50: same protocol as the HDAC1 enzyme activity test
Outline: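 5-fold compound dilutions + 0.3 μg enzyme + 10 μM Fluor de Lys-SIRT1 substrate, 60 min, 30° C; Developer II 30 min; fluorescence Ex 360/Em 460; IC50 by curve fit.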

| Compound | HDAC6 selectivity (fold) | IC50 [nM] |
| --- | --- | --- |
| CCS(=O)(=O)N(Cc1ccc(-c2nnc(C(F)F)o2)cn1)c1ccc(CN2CCN(C(C)=O)CC2)cc1 [Compound 11386, N-(4-((4-acetylpiperazin-1-yl)methyl)phenyl)-N-((5-(5-(difluoromethyl)-1,3,4-oxadiazol-2-yl)pyridin-2-yl)methyl)ethanesulfonamide] | 1316 | 76 |
| CCS(=O)(=O)N(Cc1ccc(-c2nnc(C(F)F)o2)cn1)c1ccc(CN2CCN(S(C)(=O)=O)CC2)cc1 [Compound 11387, N-((5-(5-(difluoromethyl)-1,3,4-oxadiazol-2-yl)pyridin-2-yl)methyl)-N-(4-((4-(methylsulfonyl)piperazin-1-yl)methyl)phenyl)ethanesulfonamide] | 1087 | 92 |
| CS(=O)(=O)N(Cc1ccc(-c2noc(C(F)(F)F)n2)cc1)Cc1ccc(-c2nnc(C(F)F)o2)cc1F [Compound 11389, N-(4-(5-(difluoromethyl)-1,3,4-oxadiazol-2-yl)-2-fluorobenzyl)-N-(4-(5-(trifluoromethyl)-1,2,4-oxadiazol-3-yl)benzyl)methanesulfonamide] | 104 | 960 |
| CCS(=O)(=O)N(Cc1ccc(-c2nnc(C(F)F)o2)cc1F)c1cccc(CN2CCS(=O)(=O)CC2)c1 [Compound 11392, N-(4-(5-(difluoromethyl)-1,3,4-oxadiazol-2-yl)-2-fluorobenzyl)-N-(3-((1,1-dioxidothiomorpholino)methyl)phenyl)ethanesulfonamide] | 1000 | 100 |
| CCS(=O)(=O)N(Cc1ccc(-c2nnc(C(F)F)o2)cc1F)c1ccc(CN2CCN(C(C)=O)CC2)cc1 [Compound 11402, N-(4-((4-acetylpiperazin-1-yl)methyl)phenyl)-N-(4-(5-(difluoromethyl)-1,3,4-oxadiazol-2-yl)-2-fluorobenzyl)ethanesulfonamide] | 1316 | 76 |
| CCS(=O)(=O)N(Cc1ccc(-c2nnc(C(F)F)o2)cc1F)c1cccc(CN2CCN(C(C)=O)CC2)c1 [Compound 11403, N-(3-((4-acetylpiperazin-1-yl)methyl)phenyl)-N-(4-(5-(difluoromethyl)-1,3,4-oxadiazol-2-yl)-2-fluorobenzyl)ethanesulfonamide] | 1282 | 78 |
| CCS(=O)(=O)N(Cc1ccc(-c2nnc(C(F)F)o2)cc1F)c1cccc(CN2CCN(S(C)(=O)=O)CC2)c1 [Compound 11404, N-(4-(5-(difluoromethyl)-1,3,4-oxadiazol-2-yl)-2-fluorobenzyl)-N-(3-((4-(methylsulfonyl)piperazin-1-yl)methyl)phenyl)ethanesulfonamide] | 952 | 105 |
| CCS(=O)(=O)N(Cc1ccc(-c2nnc(C(F)F)o2)cc1F)c1cccc(CN2CCN(C)CC2)c1 [Compound 11405, N-(4-(5-(difluoromethyl)-1,3,4-oxadiazol-2-yl)-2-fluorobenzyl)-N-(3-((4-methylpiperazin-1-yl)methyl)phenyl)ethanesulfonamide] | 1493 | 67 |
| CCS(=O)(=O)N(Cc1ccc(-c2nnc(C(F)(F)F)o2)cc1F)c1cccc(CN2CCN(C(C)=O)CC2)c1 [Compound 11406, N-(3-((4-acetylpiperazin-1-yl)methyl)phenyl)-N-(2-fluoro-4-(5-(trifluoromethyl)-1,3,4-oxadiazol-2-yl)benzyl)ethanesulfonamide] | 435 | 230 |
| CCS(=O)(=O)N(Cc1ccc(-c2nnc(C(F)F)o2)cn1)c1ccc(F)c(Cl)c1 [Compound 11411, N-(3-chloro-4-fluorophenyl)-N-((5-(5-(difluoromethyl)-1,3,4-oxadiazol-2-yl)pyridin-2-yl)methyl)ethanesulfonamide] | 14286 | 7 |
| CCS(=O)(=O)N(Cc1ccc(-c2nnc(C(F)F)o2)cc1F)c1cccc(C2CCN(C)CC2)c1 [Compound 11427, N-(4-(5-(difluoromethyl)-1,3,4-oxadiazol-2-yl)-2-fluorobenzyl)-N-(3-(1-methylpiperidin-4-yl)phenyl)ethanesulfonamide] | 352 | 284 |
| CS(=O)(=O)N(Cc1ccc(-c2nnc(C(F)F)o2)cn1)c1ccc(F)c(Cl)c1 [Compound 11433, N-(3-chloro-4-fluorophenyl)-N-((5-(5-(difluoromethyl)-1,3,4-oxadiazol-2-yl)pyridin-2-yl)methyl)methanesulfonamide] | 8333 | 12 |

Now from value to compound:

| HDAC6 selectivity (fold) | IC50 [nM] | Compound |
| --- | --- | --- |
| 6250 | 16 | CN1CCC(S(=O)(=O)N(Cc2ccc(-c3nnc(C(F)F)o3)cn2)c2ccccc2)CC1 [Compound 11367, N-((5-(5-(difluoromethyl)-1,3,4-oxadiazol-2-yl)pyridin-2-yl)methyl)-1-methyl-N-phenylpiperidine-4-sulfonamide] |
| 6667 | 15 | CCN1CCC(S(=O)(=O)N(Cc2ccc(-c3nnc(C(F)F)o3)cn2)c2ccccc2)CC1 [Compound 11368, N-((5-(5-(difluoromethyl)-1,3,4-oxadiazol-2-yl)pyridin-2-yl)methyl)-1-ethyl-N-phenylpiperidine-4-sulfonamide] |
| 11111 | 9 | CN1CCC(S(=O)(=O)N(Cc2ccc(-c3nnc(C(F)F)o3)cc2F)c2ccccc2)CC1 [Compound 11372, N-(4-(5-(difluoromethyl)-1,3,4-oxadiazol-2-yl)-2-fluorobenzyl)-1-methyl-N-phenylpiperidine-4-sulfonamide] |
| 10000 | 10 | CCN1CCC(S(=O)(=O)N(Cc2ccc(-c3nnc(C(F)F)o3)cc2F)c2ccccc2)CC1 [Compound 11373, N-(4-(5-(difluoromethyl)-1,3,4-oxadiazol-2-yl)-2-fluorobenzyl)-1-ethyl-N-phenylpiperidine-4-sulfonamide] |
| 4545 | 22 | CC(C)(O)CN1CCC(S(=O)(=O)N(Cc2ccc(-c3nnc(C(F)F)o3)cc2F)c2ccccc2)CC1 [Compound 11377, N-(4-(5-(difluoromethyl)-1,3,4-oxadiazol-2-yl)-2-fluorobenzyl)-1-(2-hydroxy-2-methylpropyl)-N-phenylpiperidine-4-sulfonamide] |
| 1333 | 75 | CCS(=O)(=O)N(Cc1ccc(-c2nnc(C(F)F)o2)cn1)c1cccc(CN2CCN(C(C)=O)CC2)c1 [Compound 11388, N-(3-((4-acetylpiperazin-1-yl)methyl)phenyl)-N-((5-(5-(difluoromethyl)-1,3,4-oxadiazol-2-yl)pyridin-2-yl)methyl)ethanesulfonamide] |
| 7692 | 13 | O=S(=O)(C1CCOCC1)N(Cc1ccc(-c2nnc(C(F)F)o2)cn1)c1ccccc1 [Compound 11390, N-((5-(5-(difluoromethyl)-1,3,4-oxadiazol-2-yl)pyridin-2-yl)methyl)-N-phenyltetrahydro-2H-pyran-4-sulfonamide] |
| 8333 | 12 | CCS(=O)(=O)N(Cc1ccc(-c2nnc(C(F)F)o2)cn1)c1ccccc1 [Compound 11412, N-((5-(5-(difluoromethyl)-1,3,4-oxadiazol-2-yl)pyridin-2-yl)methyl)-N-phenylethanesulfonamide] |
| 7692 | 13 | CS(=O)(=O)N1CCC(S(=O)(=O)N(Cc2ccc(-c3nnc(C(F)F)o3)cn2)c2ccccc2)CC1 [Compound 11426, N-((5-(5-(difluoromethyl)-1,3,4-oxadiazol-2-yl)pyridin-2-yl)methyl)-1-(methylsulfonyl)-N-phenylpiperidine-4-sulfonamide] |
| 6667 | 15 | O=S(=O)(C1CCOC1)N(Cc1ccc(-c2nnc(C(F)F)o2)cn1)c1ccccc1 (centres unmarked) [Compound 11428, N-((5-(5-(difluoromethyl)-1,3,4-oxadiazol-2-yl)pyridin-2-yl)methyl)-N-phenyltetrahydrofuran-3-sulfonamide] |

From patent US10538498B2, “1,3,4-oxadiazole sulfonamide derivative compounds as histone deacetylase 6 inhibitor, and the pharmaceutical composition comprising the same” (Chong Kun Dang Pharmaceutical Corp., priority 2015, dated 2020)
